In patent publication US20250144179A1, “PEPTIDE HORMONE TO PREVENT OR TREAT VASOSPASM, BRAIN INJURY OR CEREBRAL EDEMA” (UNIVERSITY OF FLORIDA RESEARCH FOUNDATION, INCORPORATED, priority 2022, published 2025):

Key:
Type in all cases: in vivo, mouse
[1] = system: wild-type mice, SAH model; experiment: Delayed cerebral vessel casting, MCA diameter (vasospasm) after SAH
Procedure: Synthetic adropin^34-76 peptide was supplied from Bachem (Bubendorf, Switzerland) and diluted in 0.1% BSA in saline. 0.1% BSA in saline was used as vehicle control for all experiments. […] For experiments ending at 24 hours post-SAH, an identical dose of adropin/vehicle was given again 12 hours later. For experiments ending 7 days post-SAH, adropin/vehicle was given again on days 1, 3 & 5 post-SAH. In the aneurysm rupture model, adropin was given at a dose of 450 nmol/kg starting 3 days before aneurysm induction (elastase injection). Adropin was given every other day until sacrifice
SAH was modeled using the anterior circulation single autologous blood injection method^25,33 with minor adjustments. Mice were anesthetized with ketamine (100 mg/kg) and xylazine (10 mg/kg) before removing hair from scalp and cleaning with serial betadine—saline washes. […]
(§1) Middle cerebral artery diameter were measured as previously reported.^36,37 One week post-SAH, mice were deeply anesthetized with ketamine and xylazine before being serially perfused through the left ventricle with PBS (5 mL), 4% PFA (15 mL), and 20% India ink dissolved in 5% gelatin. […] Brains were imaged and analyzed by an observer blinded to group assignment. The narrowest diameter within the first 2000 μm of the middle cerebral artery (MCA) after the terminal interior carotid artery bifurcation (M1 segment) was measured to assess vasospasm. […]

[2] = Quantitative serum assays for common markers of liver toxicity
[3] = system: wild-type mice, SAH model; experiment: Sodium fluorescein extravasation assay (blood-brain barrier permeability) after SAH; conditions: 24 hours post-SAH, adropin 450 nmol/kg i.p.
Procedure: (§2) Synthetic adropin^34-76 peptide was supplied from Bachem (Bubendorf, Switzerland) and diluted in 0.1% BSA in saline. 0.1% BSA in saline was used as vehicle control for all experiments. Adropin (450 nmol/kg) or an equivalent volume of vehicle was delivered via intraperitoneal injection 15 minutes post-SAH. For experiments ending at 24 hours post-SAH, an identical dose of adropin/vehicle was given again 12 hours later. For experiments ending 7 days post-SAH, adropin/vehicle was given again on days 1, 3 & 5 post-SAH. In the aneurysm rupture model, adropin was given at a dose of 450 nmol/kg starting 3 days before aneurysm induction (elastase injection). Adropin was given every other day until sacrifice
(§3) SAH was modeled using the anterior circulation single autologous blood injection method^25,33 with minor adjustments. Mice were anesthetized with ketamine (100 mg/kg) and xylazine (10 mg/kg) before removing hair from scalp and cleaning with serial betadine—saline washes. The tail was also prepped from the base extending 1 cm distally. Mice were then fixed into a stereotaxic frame and body temperature maintained at 37° C. The scalp was incised along the sagittal suture from bregma to the nasal bone. The skin was reflected and a burr hole was drilled 5.0 mm rostral of bregma and 0.5 mm right laterally to avoid puncturing dural venous sinuses. […]

MMP9 = experiment: Western blot of MMP9 in brain after SAH; conditions: wild-type mice, adropin 450 nmol/kg i.p. vs vehicle
Procedure: as §2
as §3, with “bone.” for “bone. The skin was reflected and a burr hole was drilled 5.0 mm rostral of bregma and 0.5 mm right laterally to avoid puncturing dural venous sinuses.”
At 24 hours or 7 days post-SAH, mice were deeply anesthetized and perfused with 10 mL of ice-cold PBS. […] Samples were centrifuged, supernatant collected, and protein quantified via Bradford assay. […]

eNOS^−/− mice, SAH model = experiment: MCA diameter (vasospasm) after SAH in eNOS knockout mice; conditions: one week post-SAH
Excerpt: All animal experiments were approved by IACUC (Institutional Animal Care and Use Committee) and performed in accordance with ARRIVE (Animal Research: Reporting of In Vivo Experiments) guidelines. All animals were 12-15-week-old females and were housed in pathogen-free housing with ad libitum food and water and 12-h light/dark cycling. Wild-type C57B1/6 mice were received from Charles River Labs (Wilmington, Mass.) and eNOS knockout mice were obtained from The Jackson Laboratory (Bar Harbor, Maine). eNOS knockout breeding pairs were genotyped prior to breeding and F1 progeny used for all experiments. The following primers were used for genotyping: eNOS knockout (Nos3^−/−): F-5′-[…]-3′, R-5′-[…]-3′. All animals underwent twice daily monitoring from institutional animal care services staff and/or investigators. […]
as §1

Substance: adropin (CHSRSADVDSLSESSPNSSPGPCPEKAPPPQKPSHEGSYLLQP) [Synthetic adropin^34-76 peptide from Bachem]
- ipsilateral MCA diameter (cerebral vasospasm) ([1]; seven days post-SAH, treatment started 15 minutes post-SAH): adropin-treatment reversed this phenotype
- cerebral vasospasm (MCA diameter) ([1]; treatment initiated at 24 hours post-SAH): strong trend for reduced cerebral vasospasm
- serum concentration of alanine aminotransferase (ALT) ([2]; I.P. injection of adropin): did not cause elevations
- serum concentration of aspartate aminotransferase (AST) ([2]; I.P. injection of adropin): did not cause elevations
- serum concentration of fasting glucose ([2]; I.P. injection of adropin): did not cause elevations
- serum concentration of total bilirubin ([2]; I.P. injection of adropin): did not cause elevations
- common markers of liver toxicity ([2]; adropin vs vehicle): adropin had no effect compared to vehicle treatment
- barrier permeability, average area of positive fluorescein signal [3]: adropin treatment reduced this effect
- cleaved MMP9 levels (immunoblot) (MMP9): an effect abolished by adropin treatment
- vasospasm (MCA diameter) (eNOS^−/− mice, SAH model): adropin did not prevent vasospasm
